Reference: publication PMC6033896, “Discovery of Mcl-1 inhibitors from integrated high throughput and virtual screening” (Scientific Reports, 2018)
Values joined by “and” are separate entries in the source; they are usually repeats but may differ in a detail not shown here. Identical values can stand only once.

Assays:
Mcl-1 protein [1] = target: T1, Mcl-1 protein (Homo sapiens, UniProt Q07820); experiment: FP-based competitive binding assay with fluorescent labelled Bid BH3 peptide; details: for Ki: calculated from FP IC50; for IC50: competition with fluorescent Bid probe 2 nM, 20 nM Mcl-1 for purchased compounds, 10 nM for synthesized library
T1 construct: human Mcl-1 (residues 171–323); His tag (pHis-TEV vector) (N, cleaved yes); made in house; host or cells: E. coli BL21 (DE3)
Protocol: (§1) FP-based binding assays were developed and optimized to determine the binding affinities of inhibitors to the recombinant Mcl-1, Bcl-2, Bcl-xL, and Bfl-1, proteins. […] The fluorescent Bid probe was fixed at 2 nM for all assays, except for Bfl-1, where 1 nM was used. 5 μL of the tested compound in DMSO and 120 μL of protein/probe complex in the assay buffer were added to assay plates (Corning #3792), incubated at room temperature for 3 h, and the polarization values (mP) were measured at an excitation wavelength of 485 nm and an emission wavelength of 530 nm using the plate reader Synergy H1 Hybrid, BioTek. IC50 values were determined by nonlinear regression fitting of the competition curves (GraphPad Prism 6.0 Software). The Ki values were calculated as described previously.
(§2) 1. List of compounds purchased from vendors
(§3) Compound s 5, 6, 7, 8 and S3, S4, S5, S6 S7, S8, S9, S10, S17 were purchased from […]
(§4) Compound s 9, 10, 11 and S11, S12, S13 were purchased from I nterbioscreen […]
His-tagged proteins containing human Mcl-1 (residues 171–323), the isoform 2 construct of the human Bcl-2 [Bcl2-2 construct for protein production starts with the Bcl2 sequence of 1-34 a a, followed by the Bcl-xL seq uence of 35-50 aa, and ends with the Bcl-2 sequenc e of 92-202aa.], Bcl-xL (Human Bcl-xL protein, which has an internal deletion for the 45 -85 amino acid residues and a C -terminal truncation for the amino acid residues 212-233), and Bf l-1 (residues 1-151), were expres sed from the pHis -TEV vector (a modified pET vector) in E. coli BL21 (DE3) cells. Cells were grown at 37 °C in 2×YT containing antibiotics to an OD600 density of 1.5, 1 and 0.8 for Mcl-1, Bcl-xL and Bcl-2 respectively. Protein expression wa s induced by 0 .4 mM IPTG at 20 °C overnight for all proteins except for Bf l-1 which was e xpressed at 3 7 °C for four hours . Cells were lysed in 20 mM HEPES pH 7.5, 200 mM NaCl, 0.1% βME with Leupeptin/Aprotinin (Mcl-1), 25mM Tris pH 8.5, 200mM NaCl (Bcl-2), 50mM Tris pH 7.5, 200 mM NaCl (Bcl-xL) and 50 mM Tris pH 8, 500 mM NaCl, 0. 1% βME with Leupeptin/Aprotinin (Bf l-1). All […]
proteins were purified from the soluble fraction using Ni-NTA resin (QIAGEN), following the manufacturer’s instructions. For purification of TEV-cleaved protein, the amino-terminal His tag was cleaved by incubation with TEV protease and the protein was further purified by anion exchange (Source Q) and gel filtration chromatography (Superdex 75, Amersham Biosciences) in 20mM HEPES pH 7.0, 50 mM NaCl (Mcl-1), […]
NaCl, 0.1% βME (Bcl-xL) and 25 mM Tris pH 7.5, 150 mM NaCl, 25% Glycerol, 0.1% βME ( Bf l-1). His-tagged Mcl-1 protein was used for TR-FRET assay and HSQC-NMR.
His-TEV cleaved Mcl-1, Bcl-2, Bcl-xL, and Bf l-1 were used in fluorescent polarization and surface plasmon resonance binding assays.
Mutant Mcl-1 protein wa s prepared by the QuikChange site -directed mutagenesi s method (Stratagene) , where Arg263 was mutated to Ala. The R263A expression pla smid was transformed into Rosetta2 DE3 cells and purified by the same method as the wildtype protein. Cultures were grown to an OD 600 of 1. 5 at 37 °C in Terrific Broth, induced with 0. 4 mM IPTG, and express ed overnight at 20 °C. The follow-up purification was performed the same way as was for Mcl-1 wild-type recombinant

Mcl-1 protein [2] = target: T1, Mcl-1 protein; experiment: SPR-based solution competitive binding assay, immobilized biotin-labelled Bim BH3 peptide; details: Mcl-1 20 nM; competition with immobilized Bim BH3 peptide
Protocol: The solution competitive SPR-based assay was performed on Biacore 2000 in a similar way as was already reported. Briefly, N terminal biotin-labelled Bim BH3 peptide (141–166 amino acids) was immobilized on streptavidin (SA) chip giving a density of 800 RU (Response Units). The pre-incubated Mcl-1 protein (20 nM) with tested small-molecule inhibitors for at least 30 min was injected over the surfaces of the chip using assay buffer HBS-P (GE, #BR100368). Response units were measured at 15 s in the dissociation phase, and IC50 values were determined by nonlinear least-squares analysis using GraphPad Prism 6.0 software.

Mcl-1 protein [3] = target: T1, Mcl-1 protein; experiment: TR-FRET binding assay with Bid-Dy647 peptide; details: 10 nM Mcl-1, 10 nM Bid-Dy647
Protocol: TR-FRET was performed using black 384-well plates in an Envision Multilabel plate reader (Perkin Elmer Life Sciences). To each well, a mixture of 10 nM Bid-Dy647 peptide (79–99), 10 nM Mcl-1 protein, and Europium-anti-His antibody were added to a final volume of 25 μl in the assay buffer (20 mM potassium phosphate, pH 7.5; 50 mM NaCl, 1 mM EDTA and 0.05% Pluronic F68). The TR-FRET signals were measured with an Envision Multilabel plate reader after 2 h of incubation. (Ex 340 nm, Em615 nm and Em665 nm) and expressed as FRET signal ratio (F665 nm/[…] * 104)

[4] = test system: Eµ-myc lymphoma cells overexpressing Mcl-1; experiment: Eµ-myc lymphoma cell viability, flow cytometry; format: cell-based, mice; details: increasing concentrations, 15 h
Protocol: (§5) MEF cells, including wild-type, Bax/Bak double knockout, Bax−/− single knockout, and Bak−/− single knockout were tested and characterized (Supplementary Fig. S3). The cells were cultured in DMEM (Life Technologies), supplemented with 10% fetal bovine serum (FBS) (Thermo Scientific HyClone) and 1% Penicillin/streptomycin solution (Life Technologies). The retrovirally transduced lymphoma cells isolated from Eμ-myc transgenic mice were provided by Ricky W. Johnstone at the University of Melbourne, Melbourne, Australia and cultured as previously described[37],[65].
(§6) The Mcl-1, Bcl-2, and Bcl-xL retroviral transduced lymphoma Eμ-myc cells were seeded in 12-well plates at 0.5 × 10^6 cells/well. […] The cells were harvested and stained with violet LIVE/DEAD Fixable Dead Cell Stain Kit (Invitrogen) according to manufacturer’s protocol. The percentage of fluorescent positive cells was determined by flow cytometry and calculated using WinList 3.0.

[5] = test system: Eµ-myc lymphoma cells overexpressing Bcl-2; experiment: Eµ-myc lymphoma cell viability, flow cytometry; format: cell-based, mice; details: increasing concentrations
Protocol: as §5, §6

Bcl-2 = target: T2, Bcl-2 (Homo sapiens, UniProt P10415, DEL35-91/INS34DVEENRTEAPEGTESE); experiment: FP-based competitive binding assay with FAM-Bid; details: FP
T2 construct: His tag (pHis-TEV vector) (N, cleaved yes); made in house; host or cells: E. coli BL21 (DE3)
Protocol: as §1, §2, §3, §4
(§7) His-tagged proteins containing human Mcl-1 (residues 171–323), the isoform 2 construct of the human Bcl-2 [Bcl2-2 construct for protein production starts with the Bcl2 sequence of 1-34 a a, followed by the Bcl-xL seq uence of 35-50 aa, and ends with the Bcl-2 sequenc e of 92-202aa.], Bcl-xL (Human Bcl-xL protein, which has an internal deletion for the 45 -85 amino acid residues and a C -terminal truncation for the amino acid residues 212-233), and Bf l-1 (residues 1-151), were expres sed from the pHis -TEV vector (a modified pET vector) in E. coli BL21 (DE3) cells. Cells were grown at 37 °C in 2×YT containing antibiotics to an OD600 density of 1.5, 1 and 0.8 for Mcl-1, Bcl-xL and Bcl-2 respectively. Protein expression wa s induced by 0 .4 mM IPTG at 20 °C overnight for all proteins except for Bf l-1 which was e xpressed at 3 7 °C for four hours . Cells were lysed in 20 mM HEPES pH 7.5, 200 mM NaCl, 0.1% βME with Leupeptin/Aprotinin (Mcl-1), 25mM Tris pH 8.5, 200mM NaCl (Bcl-2), 50mM Tris pH 7.5, 200 mM NaCl (Bcl-xL) and 50 mM Tris pH 8, 500 mM NaCl, 0. 1% βME with Leupeptin/Aprotinin (Bf l-1). All

Bcl-xL = target: T3, Bcl-xL (Homo sapiens, UniProt Q07817, DEL45-85); experiment: FP-based competitive binding assay with FAM-Bid; details: FP
T3 construct: His tag (pHis-TEV vector) (N, cleaved yes); made in house; host or cells: E. coli BL21 (DE3)
Protocol: as §1, §2, §3, §4, §7

Bfl-1 = target: T4, Bfl-1 (Homo sapiens, UniProt Q16548); experiment: FP-based competitive binding assay with FAM-Bid
T4 construct: Bf l-1 (residues 1-151); His tag (pHis-TEV vector) (N, cleaved yes); made in house; host or cells: E. coli BL21 (DE3)
T4 sequence (Q16548 1-151): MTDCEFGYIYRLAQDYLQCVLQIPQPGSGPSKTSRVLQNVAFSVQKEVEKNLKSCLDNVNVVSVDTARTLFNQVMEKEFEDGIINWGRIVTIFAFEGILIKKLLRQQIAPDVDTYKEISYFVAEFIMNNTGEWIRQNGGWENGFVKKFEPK
Protocol: as §1, §2, §3, §4, §7

T1 sequence (Q07820 171-323): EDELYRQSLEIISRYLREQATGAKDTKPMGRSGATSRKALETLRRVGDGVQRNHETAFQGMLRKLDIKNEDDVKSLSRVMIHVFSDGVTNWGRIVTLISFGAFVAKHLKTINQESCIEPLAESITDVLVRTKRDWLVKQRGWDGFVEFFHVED
T3 sequence (Q07817 with tags, fused parts or gaps DEL45-85 limits assumed): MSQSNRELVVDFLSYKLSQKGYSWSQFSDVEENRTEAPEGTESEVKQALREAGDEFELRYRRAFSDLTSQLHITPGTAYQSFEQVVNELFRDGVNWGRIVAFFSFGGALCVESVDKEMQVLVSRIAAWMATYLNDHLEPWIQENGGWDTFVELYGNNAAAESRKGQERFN
T2 sequence (P10415 with tags, fused parts or gaps INS34DVEEN/V35R/G36T/A37E/P40E/DEL42-87/P88T/V89E/P90S/P91E): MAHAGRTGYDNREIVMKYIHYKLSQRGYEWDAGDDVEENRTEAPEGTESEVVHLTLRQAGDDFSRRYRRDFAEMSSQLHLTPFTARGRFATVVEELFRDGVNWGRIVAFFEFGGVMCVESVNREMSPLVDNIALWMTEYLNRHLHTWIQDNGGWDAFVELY

Row | SMILES | Ki (Mcl-1 protein [1]) [µM] | IC50 (Mcl-1 protein [1]) | IC50 (Mcl-1 protein [2]) [µM] | IC50 (Mcl-1 protein [3]) [µM] | other results
1 | O=C(CSc1nnc(-c2ccccn2)c(-c2ccccn2)n1)Nc1ccccc1 [Compound 27] | > 12.5 | > 50 µM | > 100 | – | –
2 | CCc1cccc(NC(=O)CSc2nnc(-c3ccco3)c(-c3ccco3)n2)c1 [Compound 37] | 1.2 ± 0.1 | 5.3 ± 0.5 µM | – | – | –
3 | O=C(CSc1nnc(-c2cccs2)c(-c2cccs2)n1)Nc1ccccc1 [Compound 25] | > 25 | > 100 µM | > 100 | > 100 | –
4 | c1ccc(CCSc2nnc(-c3ccco3)c(-c3ccco3)n2)cc1 [Compound 43] | 0.5 ± 0.1 | 2.2 ± 0.2 µM | – | 5.2 ± 0.1 | –
5 | O=C(CSc1nnc(-c2ccco2)c(-c2ccco2)n1)Nc1ccc(Cc2ccccc2)cc1 [Compound 36] | 0.6 ± 0.1 | 2.5 ± 0.6 µM | 4.2 ± 0.4 | 5.1 ± 1.5 | –
6 | CC(C)c1ccc(NC(=O)CSc2nnc(-c3ccco3)c(-c3ccco3)n2)cc1 [Compound 29] | 0.5 ± 0.2 | 2.3 ± 0.7 µM | 11.6 ± 1.1 | – | killing of Eµ-myc cells overexpressing Mcl-1 [4]: killing; effect on Eµ-myc cells overexpressing Bcl-2 [5]: selectivity
7 | COc1ccc(NC(=O)CSc2nnc(-c3ccco3)c(-c3ccco3)n2)cc1 [Compound 30] | 7.8 ± 1.8 | 33 µM and 33.1 µM | 47.4 ± 3.9 | – | –
8 | O=C(CSc1nnc(-c2ccco2)c(-c2ccco2)n1)Nc1ccccc1-c1ccccc1 [Compound 41] | 1 ± 0.1 | 4.4 ± 0.5 µM | 1.9 ± 0.7 | 12.7 ± 4.5 | –
9 | O=C(CSc1nnc(-c2ccco2)c(-c2ccco2)n1)Nc1ccc(F)cc1 [Compound 34] | 1.9 ± 0.2 | 8.1 ± 0.8 µM | 12.5 ± 1.7 | 11.6 ± 4 | –
10 | c1ccc(CCCSc2nnc(-c3ccco3)c(-c3ccco3)n2)cc1 [Compound 42] | 0.4 ± 0.1 | 1.5 ± 0.3 µM | – | 2.4 ± 0.1 | IC50 (Bcl-2): > 100 µM; Ki (Bcl-2): > 25 µM; IC50 (Bcl-xL): > 100 µM; Ki (Bcl-xL): > 20 µM; IC50 (Bfl-1; Bfl-1): 11.4 ± 0.1 µM; Ki (Bfl-1; FP): 1.6 ± 0.1 µM
